# PMC12035805, “A Water-Soluble Aggregation-Induced Emission Photosensitizer with Intrinsic Antibacterial Activity as an Antiplanktonic and Antibiofilm Therapeutic Agent” (Journal of Medicinal Chemistry, 2025)
# How the values were obtained:
# [1] = Cytotoxicity (MTT) assay against HFF-1 cells; type: cell-based; settings: human, no irradiation, read-out: 50% cytotoxicity concentration (CC50) against HFF-1 cells
# Protocol: The cytotoxicity of TPA-1, TPA-0, and TPA-NC-1 against HFF-1 cells was evaluated using the 3-(4,5-dimethylthiazol-2-yl)-2,5-diphenyltetrazolium bromide (MTT) assay kit from ThermoFisher Scientific. In general, HFF-1 cells (MEM, 10% FBS, and 1% penicillin-streptomycin) were seeded in a 96-well plate with a density of 3000 cells/well overnight at 37 °C with 5% CO2. Then, the cells were treated with different concentrations of compounds for 24 h. MTT (10 μL, 5 mg/mL) was added to the medium, and the cells were further incubated for 3 h. The medium was then replaced by DMSO (100 μL). After gently shaking the plate for 30 s, the optical density of the solutions at 570 nm was measured by a BMG Labtech CLARIOstar microplate reader. The cell viability was calculated as (ODcompound – ODDMSO)/(ODmedium - ODDMSO) × 100% where ODcompound, ODmedium, and ODDMSO are the optical densities of the treated cell, nontreated cells, and DMSO at 570 nm, respectively. The experiment was conducted in triplicate. The CC50 values were calculated using GraphPad Prism 8.
# S. aureus (ATCC 29213) = experiment: MIC assay (broth microdilution, CLSI), without light; type: cell-based; settings: Staphylococcus aureus, ATCC29213, light or radiation study; read-out: MIC against ATCC 29213 Staphylococcus aureus without light irradiation
# Protocol: The MIC assays of TPA-1 were conducted according to the broth microdilution methods described in the Clinical and Laboratory Standards Institute (CLSI) standard. A single colony of S. aureus (ATCC 29213), methicillin-resistant S. aureus (BAA 41), or P. aeruginosa (ATCC 27853) on an LB agar plate was picked and suspended in Mueller–Hinton Broth (MHB). The bacterial culture was grown overnight at 37 °C. The next day, the bacteria culture was diluted 100 times in fresh MHB and grown to the mid log phase. Bacteria in the mid log phase were further diluted to 5 × 10^6 CFU/mL in cation-adjusted MHB (S. aureus) or MHB (P. aeruginosa). Ten μL of the diluted bacteria were added to a 96-well plate containing 90 μL of serial diluted TPA-1 in the corresponding medium. The plate was incubated overnight at 37 °C. The MICs of the TPA compounds were the concentrations at which no apparent bacteria were observed by the naked eye. Different concentrations of LTA were also added to examine the change in MIC values of TPA-1 against S. aureus. The experiments were conducted in triplicate.
# S. aureus mature biofilm = S. aureus mature biofilm eradication assay in the dark; type: cell-based, Staphylococcus aureus; settings: 24 h
# Protocol: For biofilm eradication assay, overnight culture of S. aureus in TSB under darkness was diluted to 1 × 10^5 CFU/mL in TSB (with 1% glucose). 100 μL of the diluted culture was transferred to each well of a 96-well plate. The plate was kept at 37 °C for 24 h under darkness to form mature biofilms. The medium was removed, and the biofilms were washed with 200 μL of PBS (3 times). 100 μL of the premixed TPA-1 solutions in TSB (with 1% glucose) were added to the wells. The plate was further incubated for 24 h under darkness and subjected to the crystal violet assay as stated in the biofilm inhibition assay. The biofilm survival rate (%) was calculated as (ODTPA-1 – ODblank)/(ODmedium – ODblank) × 100% where ODTPA-1, ODmedium, and ODblank were the absorbances of the wells with bacteria treated TPA-1, with bacteria without treatment and with medium only, respectively. The experiment was performed in triplicate.
# P. aeruginosa biofilm = experiment: Photodynamic eradication of biofilm bacteria; type: cell-based, Pseudomonas aeruginosa; settings: light irradiation at 600 nm for 45 min
# Protocol: For biofilm bacteria, overnight culture of S. aureus or P. aeruginosa was diluted to 1 × 10^5 CFU/mL in TSB (with 1% glucose). Portion of 100 μL of the diluted bacteria culture was added to the wells of a 96-well plate. The plate was incubated under darkness for 24 h at 37 °C. Then, the planktonic bacterial suspensions were removed from the wells. The biofilms were washed with PBS (3 times) to remove any remaining planktonic bacteria. Different concentrations of TPA-1 were dissolved in PBS. TPA-1 solution was added to the biofilms (120 μL for S.aureus, 150 μL for P.aeruginosa). After 20 min of incubation under darkness at 30 °C, the biofilms were kept in the dark or irradiated by 600 nm light (60 mW/cm^2) for 15, 30, and 45 min. After that, the TPA-1 solution was replaced by 120 μL of PBS. The biofilm was then suspended in PBS by scratching, followed by sonication (5 min, ≤42 kHz) and vortex (5 min, 950 rpm). The number of viable bacteria was determined by the plate counting method. All experiments were carried out in triplicate.
# [2] = tested on: P. aeruginosa (ATCC 27853); experiment: Wound infection mouse model, P. aeruginosa biofilm; type: in vivo; settings: mice, topical 90 μM, 600 nm 15 min, every 24 h for 4 days (TPA-1 + L)
# Protocol: All in vivo experiments were approved by the Department of Science and Technology of Zhejiang Province (SYXK(Zhejiang)2021-0043). Female BALB/c mice (10–12 weeks old) were kept in 12 h light and 12 h dark cycle with access to free food and water for 7 days before and throughout the experiment. The backs of the mice were shaved and disinfected with iodine. A full-thickness circular wound (7 mm in diameter) was then created at the back of the mice. The mice were allowed to recover for 24 h after surgery to prevent sepsis.[65] Ten μL of 1× 10^8 CFU/mL MRSA (ATCC 43300) or P. aeruginosa (ATCC 27853) in saline was added to the wound. The wound was covered with an adhesive dressing for 24 h of infection. Next, the mice were randomly divided into four groups: (1) 50 μL TPA-1 (90 μM) with 600 nm light irradiation (60 mW/cm^2) for 15 min, (2) 50 μL TPA-1 (90 μM) in dark, (3) 50 μL saline with 600 nm light irradiation (60 mW/cm^2) for 15 min, and (4) 50 μL saline in dark. For light irradiation groups, TPA-1 and saline were incubated on the wound for 10 min before irradiation. The treatment was sustained for 4 days. The wound size and body weight of the mice were recorded every day. On day 6, the mice were euthanatized, and the wound tissue was collected. […] The other half of the tissue was homogenized, and the number of viable bacteria was measured by the plate counting method.
smiles,measurement,setting,value
C#CCC[n+]1c(/C=C/c2ccc(-c3ccc(N(c4ccc(OCCC[N+](C)(C)C)cc4)c4ccc(OCCC[N+](C)(C)C)cc4)cc3)s2)sc2ccccc21.[Br-].[Br-].[Br-] [TPA-1],CC50 at 24 h,[1],260 ± 40 µM
same,MIC,S. aureus (ATCC 29213),3.12 µM
same,eradication of mature S. aureus biofilms without light,S. aureus mature biofilm,only limited ability to eradicate mature biofilms
same,P. aeruginosa biofilm log CFU/mL reduction,P. aeruginosa biofilm,2.6 ± 0.2 log CFU/mL
same,P. aeruginosa in the biofilm eradicated,P. aeruginosa biofilm,99.8% ± 0.1%
same,P. aeruginosa eradicated in infected tissues,[2],96% ± 4%
same,P. aeruginosa log (CFU/mg tissue) reduction,[2],1.4 ± 0.4 log (CFU/mg tissue)
